Laboratory results from patent publication US20240366555A1, “SELECTIVE MTORC2 INHIBITOR AND USES THEREOF” (ALIAD BIOPHARMA, priority 2021, published 2024).

How the values were obtained:
[1] = tested on: CYFIP1-overexpressing hippocampal neurons; test: Excessive dendritic arborization in CYFIP1-overexpressing primary hippocampal neurons; assay type: cell-based, rat
Excerpt: Neural stem cells were primarily cultured from the hippocampal vestigial region of white mouse E16 embryos, and CYFIP1, which was found as a gene causing autism spectrum disorder, was introduced by transfection and overexpressed. When the neural stem cells in which CYFIP1 was overexpressed were differentiated, the neurite length and branch number increased compared to the normal cell, the number of dendritic spine increased, and morphological changes such as an increase in rod-shaped dendritic spines with a size of 0.6 μm or more, which are larger than the normal size, were accompanied. Therefore, CYFIP1 overexpression was used as a culture cell model of autism.
By treating norathyriol to the differentiating neural stem cells exogenously overexpressing CYFIP1, the effect of norathyriol on excessive dendritic arborization generated by CYFIP1 overexpression was investigated. By immunofluorescent staining method using an antibody against pan-neurofilament and an antibody against PSD (post-synaptic density)-95, which was expressed in the post-synaptic dendrite of synapses, the neurite length and dendritic spine number were measured and quantified. In addition, by DAPI staining, the nuclei of the neural cells were visualized.
Hippocampus-derived neural progenitor cells were isolated from the forebrain of E16 mouse embryos. SD-rat gestational age 16-day mice (Orient Bio) were purchased and the mice were anesthetized with CO2 deeply, and then the embryos were taken out. The embryos were immersed in Ca^2+/Mg^2+-free HBSS (Invitrogen) and the forebrain was isolated using a sterile injection needle under a dissecting microscope. While changing HBSS, the forebrain was separated into the left and right hemispheres using a forcep, and meninges were peeled off, and then the hippocampal eminence was separated. After washing the separated and collected tissue with cold N2 culture medium twice, 37° C. N2 culture medium was added and cells were slowly and mechanically isolated using a pipette. As the pipette, a Pasteur pipette coated with 1% BSA was used after making the pipette narrow and soft in diameter by firing the tip. After waiting for 3 minutes to allow undissolved tissue or vascular cells to settle, the supernatant was carefully taken as dissolved cells. These tissues were collected and mechanically isolated with the pipette in Ca^2+/Mg^2+-free HBSS (Invitrogen) buffer. The cells were seeded at 19,000 cells/cm^2 in a 35 mm culture dish coated with 15 μg/ml poly-L-ornithine and 1 μg/ml fibronectin (Sigma), and cultured using a serum-free N2 medium (medium for proliferation) in which 10 ng/mL bFGF (Invitrogen) was added under a condition of 5% CO2. […]

Pten KO mice [2] = test: Social-open field test in Pten KO mice; assay type: in vivo; details: 5 or 10 mg/kg, FIG. 3
Procedure: (§1) As Pten KO mice, Ptenf/f_cre/cre KO mice or Ptenf/f_cre/++ Het mice (KD) were obtained by mating Pten floxed/floxed mice and CAMKII-cre mice. DMSO or athyriol was intraperitoneally injected at 5 or 10 mg/kg for 2 weeks from the age of mice of 6 weeks, and a behavioral test was performed in 7 days after administration. Pten floxed/floxed mice were used as littermates of the same age as a normal control group.
When athyriol was administered to the Pten KO mice, in order to confirm the sociability disorder was improved, a social-open field test was performed. After adapting the Pten-KO mice to the record environment for 30 minutes, they were adapted to the open filed test space made of black acrylic for 10 minutes. An unfamiliar mouse was placed in a test space in a transparent acrylic cage allowing minimal contact with the sense of smell. The movement of the test mouse was recorded for 10 minutes and analyzed with ethovision 3.1 program. Then, sociability was measured by setting 10 cm around the cylinder where the unfamiliar mouse was placed.
The social-open field test is measuring sociability as the time spent in a social interaction zone in contact with other mice in an open space, and measures the time of actually contacting also in the contact space, or sniffling toward other mice. […]

Pten KO mice [3] = test: Y-type maze test in Pten KO mice; assay type: in vivo; details: 5 or 10 mg/kg intraperitoneally for 14 days, FIG. 1a
Procedure: as §1
A Y-maze was performed in a Y-shaped structure maze made of black acrylic material in which an angle of each arm was 120°, and a light and a cam were installed on the ceiling, and it was checked that white mice entered each arm while the surroundings were covered with a curtain. Through this, short-term memory was analyzed. In order to adapt mice to the environment, they were acclimated to the experimental space for 30 minutes. The mice were placed at one end of the maze and allowed to move freely for 12 minutes. Accuracy was measured by dividing time into 8 minutes, 10 minutes and 12 minutes. When the four paws of the mice entered the entrance, it was considered as completely entered. The percentage of accuracy was calculated as the number of times which a mouse entered each maze without repetition. The number of times entering each of three different arms was divided by the total number of times entering arms-2 and converted into a percentage for datafication. […]

SMILES	reduction of number of dendritic spines per unit neurite length ([1]; 50 nM and 100 nM, on average, FIG. 10b) [%]	number of dendritic spines in primary branching neurites ([1]; FIG. 10b)	number of dendritic spines per cell ([1]; FIG. 10b)	number of dendritic spines per unit neurite length ([1]; from 10 nM, FIG. 10)	increase of direct counterpart searching time (Pten KO mice [2]) [%]	short-term memory in Y-type maze test (Pten KO mice [3])
O=c1c2cc(O)c(O)cc2oc2cc(O)cc(O)c12 [norathyriol, 1,3,6,7-tetrahydroxy-9H-xanthen-9-one]	≤ 50	reduced by norathyriol in a similar tendency	reduced by norathyriol in a similar tendency	decrease in the number of dendritic spines was observed		
COc1cc(O)c2c(=O)c3cc(O)c(O)cc3oc2c1 [athyriol, 1,6,7-Trihydroxy-3-methoxy-9H-xanthen-9-on]					6	recovered almost to the level of the normal control group
